Data published in patent US20140045724A1, “FORMULATION SCREENING METHODS, APPARATUSES FOR PERFORMING SUCH METHODS AND FORMULATIONS FORMED BY SUCH METHODS” (priority 2012, published 2014).

Assay: Kinetic gradient concentration study in water
Format: physicochemical
Settings: CBZ gradient 0.01-0.64 w/v %
Protocol: CBZ-Ethanol solution was dispensed into 10 columns of wells in a 96-well microplate as follows: row A (80 μL @ 1 mg/mL; 80 μg API); row B (100 μL @ 2 mg/mL; 200 μg); row C (100 μL @ 4 mg/mL; 400 μg); row D (100 μL @ 6 mg/mL; 600 μg); row E (100 μL @ 8 mg/mL; 800 μg); row F (100 μL @ 20 mg/mL; 2 mg); row G (2×100 μL @ 20 mg/mL; 4 mg); row H (4×100 μL @ 20 mg/mL; 8 mg). Thus, a first-pass filling of the wellplate was conducted. The wellplate was placed on a centrivap and the solvent stripped at ambient temperature for ˜4 hours. The wells in rows G and H were refilled with CBZ solution, and the solvent stripped at ambient temperature for ˜1 hour, resulting in a net CBZ charge to rows G and H of 4 mg per well. This procedure was repeated twice for row H, resulting in a net CBZ charge of 8 mg per well. […] To the wells in columns 1 through 10 were charged the appropriate excipient, surfactant, and HPBCD solutions (4 mg/mL; 25 or 80 μL 5% Ethanol solution) that were previously determined in Example 1. Additional 5% Ethanol solvent was added to the wells to give 200 μL total liquid. The solvent (200 μL) was also charged to wells in column 11 (API control) and 12 (solvent only). […]
The microplate was inverted before scanning through the film on a UV-VIS microplate reader (600-900 nm, 2-nm step size; transmittance). […]

## NC(=O)N1c2ccccc2C=Cc2ccccc21 [control, carbamazepine]
Sonicated wellplate
  kinetically stable API concentration, sonicated microplate: 0.02 w/v %
Unsonicated wellplate
  kinetically stable API concentration, unsonicated microplate: 0.02 w/v %
